# Laboratory results: patent US12648984B2, “Long term treatment of psoriasis” (priority 2023, dated 2026)
# Test system: extensive plaque psoriasis on the trunk
# Test: one patient case: once-daily topical application on the whole trunk
# Type: in vivo, human
# Settings: same patient; for effect of earlier treatments on redness and psoriasis: regular treatment before the composition (UVA, then hydrocortisone, then Acitretine); for status upon cessation of earlier treatments: upon cessation of earlier treatment
# Description: The composition has been evaluated in one patient case. A […], presenting extensive plaque psoriasis on the trunk for several years (illustration 1), was regularly treated with UVA, then hydrocortisone, then Acitretine.
# They were provided with the composition according to the invention to apply once daily on the whole trunk. No concomitant treatment for psoriasis or else was used.
# After 6 months, treatment with the composition was discontinued. Several months after discontinuation, the patient was questioned regarding the status of the disease.
Structure (SMILES),effect of earlier treatments on redness and psoriasis,status upon cessation of earlier treatments
COc1cc(C)c(/C=C/C(C)=C/C=C/C(C)=C/C(=O)O)c(C)c1C [Acitretine],"reduced redness, but never the psoriasis itself",redness came back
C[C@]12CCC(=O)C=C1CC[C@@H]1[C@@H]2[C@@H](O)C[C@@]2(C)[C@H]1CC[C@]2(O)C(=O)CO [hydrocortisone],"reduced redness, but never the psoriasis itself",redness came back
